Test results: publication PMC3726451, “Coumestrol from the national cancer Institute’s natural product library is a novel inhibitor of protein kinase CK2” (BMC Pharmacology & Toxicology, 2013)

What was measured:
[1] = target: T1, vascular endothelial growth factor receptor 3 (VEGFR3) (Homo sapiens, UniProt P35916); assay: ADP-Glo kinase selectivity panel, single concentration […] with […] ATP; format: biochemical
T1 construct: gene FLT4

[2] = target: T2, Casein kinase 2 (CK2) (Homo sapiens, UniProt P68400); assay: ADP-Glo kinase assay, single concentration […], duplicates; format: biochemical; details: read-out: % inhibition at 10 μM
T2 construct: gene CSNK2A1
T2 sequence (P68400 whole entry): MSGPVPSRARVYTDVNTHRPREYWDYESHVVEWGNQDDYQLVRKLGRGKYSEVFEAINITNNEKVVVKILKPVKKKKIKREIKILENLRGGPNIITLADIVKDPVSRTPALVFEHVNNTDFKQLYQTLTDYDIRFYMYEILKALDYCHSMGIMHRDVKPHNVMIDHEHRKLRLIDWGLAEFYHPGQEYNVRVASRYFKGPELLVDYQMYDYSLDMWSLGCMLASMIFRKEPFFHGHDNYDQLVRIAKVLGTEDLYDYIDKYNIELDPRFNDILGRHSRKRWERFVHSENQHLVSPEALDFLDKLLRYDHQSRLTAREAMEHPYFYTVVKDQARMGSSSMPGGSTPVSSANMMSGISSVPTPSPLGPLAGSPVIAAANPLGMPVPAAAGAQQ
T2 sequence (P67870 2-215 partner): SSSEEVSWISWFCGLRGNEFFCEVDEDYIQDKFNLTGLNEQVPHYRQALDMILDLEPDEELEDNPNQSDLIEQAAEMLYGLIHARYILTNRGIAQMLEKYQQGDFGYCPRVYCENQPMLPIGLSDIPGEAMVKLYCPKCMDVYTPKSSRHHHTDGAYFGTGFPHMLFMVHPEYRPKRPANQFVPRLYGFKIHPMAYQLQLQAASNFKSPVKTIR

T1 sequence (P35916 25-1363): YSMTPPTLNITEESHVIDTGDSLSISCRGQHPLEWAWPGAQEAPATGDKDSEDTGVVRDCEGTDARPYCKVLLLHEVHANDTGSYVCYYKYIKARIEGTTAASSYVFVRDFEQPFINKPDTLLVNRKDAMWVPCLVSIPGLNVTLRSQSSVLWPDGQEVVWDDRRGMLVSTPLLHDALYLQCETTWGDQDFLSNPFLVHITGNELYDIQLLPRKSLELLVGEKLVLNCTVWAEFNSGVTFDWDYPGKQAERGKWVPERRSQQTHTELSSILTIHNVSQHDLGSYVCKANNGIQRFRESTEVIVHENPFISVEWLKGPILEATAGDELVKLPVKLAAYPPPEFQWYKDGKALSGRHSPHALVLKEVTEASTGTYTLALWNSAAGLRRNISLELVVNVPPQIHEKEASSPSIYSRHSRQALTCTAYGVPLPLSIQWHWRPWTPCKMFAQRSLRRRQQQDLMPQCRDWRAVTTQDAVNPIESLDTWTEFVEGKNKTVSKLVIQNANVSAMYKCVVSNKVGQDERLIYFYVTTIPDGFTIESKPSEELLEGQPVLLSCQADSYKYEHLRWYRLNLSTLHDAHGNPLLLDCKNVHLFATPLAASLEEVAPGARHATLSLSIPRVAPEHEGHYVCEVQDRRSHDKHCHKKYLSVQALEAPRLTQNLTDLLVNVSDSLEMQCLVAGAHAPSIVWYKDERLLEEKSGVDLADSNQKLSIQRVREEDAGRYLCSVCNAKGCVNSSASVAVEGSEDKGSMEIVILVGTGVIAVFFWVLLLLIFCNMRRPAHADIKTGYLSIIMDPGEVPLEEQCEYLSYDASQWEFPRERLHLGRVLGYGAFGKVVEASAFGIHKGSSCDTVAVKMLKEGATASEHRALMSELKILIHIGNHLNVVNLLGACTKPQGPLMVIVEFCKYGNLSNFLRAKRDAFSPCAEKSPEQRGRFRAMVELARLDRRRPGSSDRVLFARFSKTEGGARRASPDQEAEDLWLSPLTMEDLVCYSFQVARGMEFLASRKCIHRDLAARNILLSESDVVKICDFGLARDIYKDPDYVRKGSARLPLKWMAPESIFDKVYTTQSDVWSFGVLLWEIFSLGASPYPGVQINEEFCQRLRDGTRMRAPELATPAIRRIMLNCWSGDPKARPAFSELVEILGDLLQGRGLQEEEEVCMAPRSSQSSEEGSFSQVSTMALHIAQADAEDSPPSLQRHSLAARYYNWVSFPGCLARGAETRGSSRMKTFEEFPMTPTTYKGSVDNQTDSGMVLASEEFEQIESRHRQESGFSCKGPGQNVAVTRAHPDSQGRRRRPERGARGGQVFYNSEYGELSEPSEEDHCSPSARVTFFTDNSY

`O=c1oc2cc(O)ccc2c2oc3cc(O)ccc3c12` [1-F4, 3,9-Dihydroxy-6-benzofurano [3,2-c]chromenone] was tested, and the inhibition at 10 µM [1] was 59%.

`COc1cccc2c1cc([N+](=O)[O-])c1c(C(=O)O)cc3c(c12)OCO3` [1-F3, 8-methoxy-6-nitro phenanthro[3,4-d] [1, 3] dioxole-5-carboxylic acid] showed an inhibition at 10 µM [2] greater than 50%.

Compound `COc1cc(/C=C/C(=O)CC(=O)/C=C/c2ccc(O)c(OC)c2)ccc1O` [1-D6, (1E,6E)-1,7-Bis(4-hydroxy-3-methoxyphenyl)-1,6-heptadiene-3,5-dione] has an inhibition at 10 µM [2] greater than 50%.
